The values below come from patent US12636261B2, “Treatment of inflammation initiated by the spinal cord injury, the traumatic brain injury, stroke, in inhibition of cerebral and spinal cord edema and of inflammation in neurodegenerative, immune mediated and infectious diseases of the central nervous system” (priority 2021, dated 2026).

Read-outs that look alike come from different tables or passages of the source.

The subject of data set [1] is rat model of SCI (balloon crush spinal cord injury). Description: Hind End Locomotor test in the rat model of SCI. The following applies: 5 mg/rat/day oral (2.5 mg twice a day in jello), treatment groups 2-8 weeks post-SCI; ANOVA. Format: in vivo, rat (Long Evans). The method, then: In the Hind End Locomotor test, performed once every day in unrestrained rats in the cage, the motor function is measured with movements of both hind legs scored 0-6 with 0=complete paralysis and 6=normal gait [Kwiecien et al, 2019, 2020b, 2020c].
(§1) Healthy male Long Evans rats aged 12 weeks, 330-360 g, were offered a fruit flavored jello cube twice a day for 1 week prior to the surgery and were separated in individual cages 3 days before the surgery. Rats were induced with 5% isoflurane in 95% oxygen flowing at a rate of 1 liter per minute and maintained at 3.5% isoflurane in 96.5% oxygen. The anaesthetized rats had the skin on the back shaved and prepared for surgery with 70% ethyl alcohol and 10% iodine swabs. The skin was cut over the caudal thoracic and lumbar spine and spinal muscles dissected from the vertebral spine of the thoracic 10 (T10) vertebrum and the dorsal arches of this vertebrum removed. […] In the initial experiment designed to determine the anti-inflammatory effect of 0.2, 1.0 and 5 mg per day of xanthohumol (Sigma-Aldrich) after the surgery, the rats were offered a jello cube with half of the above dose twice a day, at 8-9 hours and 15-16 hours intervals, and the consumption of the jello cube was observed and recorded every day for 7 days. […]
1. […] The motor function of the hind limbs was scored from 0-6 where 0=complete paralysis of both hind legs and 6=normal locomotion.

A short description of data set [2]: Body Weight Change after the SCI surgery. Format: in vivo, rat (Long Evans). The settings on record: 5 mg/rat/day oral. The method, then:
The Body Weight Change after the SCI surgery is recorded every 3rd day [Kwiecien et al, 2019, 2020b 2021c].
as §1, with “removed. A 3Fogarty catheter was inserted via this laminectomy over the intact dura towards the head to place the caudal edge of the 3 mm long balloon at 1 cm rostral to the laminectomy.” for “removed.”

For data set [3] the following is noted: cited from earlier work.
For data set [4] the following is noted: cited from earlier work. The source holds these as a separate data set.
The next data set concerns rats. The following applies: cited from earlier work.
The test system of the next data set is SCI rats. Description: Toxicity observation in SCI rats under oral xanthohumol. The settings on record: twice a day, 5 mg per day (approx. 15 mg/kg), up to 8 weeks. Format: in vivo.
Description: as §1, with “removed. A 3Fogarty catheter was inserted via this laminectomy over the intact dura towards the head to place the caudal edge of the 3 mm long balloon at 1 cm rostral to the laminectomy. The balloon was inflated with 15 µL of sterile saline for 3 minutes, then deflated and the catheter removed.” for “removed.”

The test system of data set [5] is phagocytic macrophages in the cavity of injury (COI). The experiment in a line: Macrophage Count in the Cavity of Injury (COI), histology LFB+H&E. Format: in vivo, rat (Long Evans). The settings on record: for macrophage numbers in the COI, % of the untreated controls (100%): 7 days post-SCI. On the procedure: The histologic examination is performed in the series of consecutive sections, […], of the spinal cord including the lesion, stained with luxol fast blue and counterstained with hematoxylin and eosin (LFB+H&E). A necrotic and hemorrhagic lesion deep in the spinal cord is infiltrated starting at the day 3, by numerous inflammatory, CD68+/CD163− macrophages that phagocytize myelin-rich necrotic debris and red blood cells. The numbers of macrophages rapidly increase and remain high for 4 weeks after SCI after which they gradually decline [Kwiecien et al, 2020a]. Within the first week post-SCI the deep lesion is transformed into a cavity of injury (COI) when it starts to accumulate excess water from edema in the surrounding spinal cord [Kwiecien et al, 2020a, 2021d]. The macrophage count is performed in a COI in the injured spinal cord of untreated and treated rats in a standardized fashion at fixed periods of time post-surgery to determine a degree of reduction of macrophage numbers related to a tested anti-inflammatory agent [Kwiecien et al, 2019; 2020a, 2020b, 2021c]. This reduction in numbers of macrophages plotted against such numbers in controls is reliably indicative of a therapeutic effect of an anti-inflammatory agent.
Healthy male Long Evans rats aged 12 weeks, 330-360 g, were offered a fruit flavored jello cube twice a day for 1 week prior to the surgery and were separated in individual cages 3 days before the surgery. Rats were induced with 5% isoflurane in 95% oxygen flowing at a rate of 1 liter per minute and maintained at 3.5% isoflurane in 96.5% oxygen. The anaesthetized rats had the skin on the back shaved and prepared for surgery with 70% ethyl alcohol and 10% iodine swabs. The skin was cut over the caudal thoracic and lumbar spine and spinal muscles dissected from the vertebral spine of the thoracic 10 (T10) vertebrum and the dorsal arches of this vertebrum removed. A 3Fogarty catheter was inserted via this laminectomy over the intact dura towards the head to place the caudal edge of the 3 mm long balloon at 1 cm rostral to the laminectomy. The balloon was inflated with 15 µL of sterile saline for 3 minutes, then deflated and the catheter removed. The spinal muscles were closed with absorbable sutures over the laminectomy and the skin incision was closed with stainless steel staples. Before awakening, the rats were administered; 50 μL of a painkiller Anafen (ketoprofen, 100 mg/mL, Merial) subcutaneously for pain, and 50 µL of Baytril antibiotic (enrofloxacin 50 mg/mL, Bayer) intramuscular, and 3 mL of saline subcutaneous. In the initial experiment designed to determine the anti-inflammatory effect of 0.2, 1.0 and 5 mg per day of xanthohumol (Sigma-Aldrich) after the surgery, the rats were offered a jello cube with half of the above dose twice a day, at 8-9 hours and 15-16 hours intervals, and the consumption of the jello cube was observed and recorded every day for 7 days. Each treatment group had 5 rats. In the second phase of the experiment 1 jello cube alone or jello cube with 2.5 mg xanthohumol was offered twice a day for 1, 2, 4, 6, and 8 weeks. Each treatment group had 6-7 rats.
At a required experimental time point; 1, 2, 4, 6, or 8 weeks post-surgery, the SCI rats were overdosed with the sodium pentobarbital (80 mg/kg b.w.) administered intraperitoneally. When in deep plane of anaesthesia, the chest was cut open, 100 international units of heparin sodium injected into the left heart ventricle and a cannula with flowing lactated Ringer's solution inserted into the left ventricle while the right auricle was cut open. After the blood was washed out, the flow of the lactated Ringer's solution was replaced by that of phosphate buffered formalin and the carcass was fixed.
The spine was removed, postfixed in formalin overnight and then placed in formalin supplemented with 8% EDTA, pH 7.0, to decalcify the spinal vertebrae. The decalcifying solution was replaced by fresh one every 2 days for 2 weeks. […]

The conditions of data set [6]: cited from earlier work; for bioavailability: Wistar rats.
The test system of data set [7] is rat model of SCI (balloon crush spinal cord injury). The experiment in a line: Duration of Paralysis of the Urinary Bladder in SCI rats. Format: in vivo, rat (Long Evans). The following applies: 5 mg/rat/day oral.
Description: as §1, with “removed. A 3Fogarty catheter was inserted via this laminectomy over the intact dura towards the head to place the caudal edge of the 3 mm long balloon at 1 cm rostral to the laminectomy.” for “removed.”
4. The duration of the distention of the urinary bladder that required manual voiding until the normal function of the urinary bladder was restored, in days, was recorded.

The test system of the next data set is mice. The following applies: cited from earlier work.
The subject of data set [8] is rat model of SCI (balloon crush spinal cord injury). Description: Toe Pinch Withdrawal test in the rat model of SCI. It counts as in vivo, rat (Long Evans). The settings on record: 5 mg/rat/day oral, treatment groups 2-8 weeks post-SCI; ANOVA.
Description: In the Toe Pinch Withdrawal test, performed once every day in rats held by the tail, the sensory function and the strength of both hind limbs are scored 0-6 with 0=complete loss of reaction to the toe pinch and 6=strong, normal withdrawal in both legs after the toe pinch [Kwiecien et al, 2019, 2020b, 2020c].
as §1, with “oxygen.” for “oxygen. The anaesthetized rats had the skin on the back shaved and prepared for surgery with 70% ethyl alcohol and 10% iodine swabs. The skin was cut over the caudal thoracic and lumbar spine and spinal muscles dissected from the vertebral spine of the thoracic 10 (T10) vertebrum and the dorsal arches of this vertebrum removed.”
2. The Toe Pinch Withdrawal test [Kwiecien et al, 2021c] was performed once a day in rats held by the tail in the cage and the presence and strength of both hind legs scored 0-6 where 0=no response to the toe pinch and 6=strong, normal withdrawal response to the toe pinch in both legs.

With `COc1cc(O)c(CC=C(C)C)c(O)c1C(=O)/C=C/c1ccc(O)cc1` [xanthohumol, 2′,4′,4-trihydroxy-6′-methoxy-3′-prenylchalcone], in data set [1], the “Hind End Locomotor test score (0-6) vs untreated rats” value is “significantly higher scores”. The “body weight change vs untreated controls” value in data set [2] (groups 1, 2 and 8 weeks post-SCI) was “no statistical difference”. For the same compound, in data set [2] (groups treated for 4 and 6 weeks), the “body weight recovery post-surgery vs untreated controls” value was “recovered statistically sooner and to a greater degree”. Also, in data set [3], the “bioavailability after oral administration” value is reported as “approximately 1%”. In addition, the solubility in water result in data set [4] is listed as “poorly”. The “toxic effect of daily oral administration” value with rats (16.9 mg/kg body weight daily oral) was “no toxic effect”. Besides, the “toxicity after long administration of large doses” value with rats and in the data set on mice was “no toxicity” each time. In the data set with SCI rats, the toxicity of xanthohumol result is given as “not observed”. Moreover, the “macrophage numbers in the COI, % of the untreated controls (100%)” value in data set [5] (0.2 mg/rat/day oral, not statistically significant) was 73.7%; in data set [5] (1.0 mg/rat/day oral, p=0.026) it was 63.9%; in data set [5] (5.0 mg/rat/day oral, dose-response study, p=0.0013) it was 53.8%. Further, the “macrophage counts in the COI, % of the controls” value in data set [5] (5 mg/rat/day oral, 1 week post-SCI, second phase) is 57.0%; in data set [5] (5 mg/rat/day oral, 2 weeks post-SCI) it was 60.7%; in data set [5] (5 mg/rat/day oral, 4 weeks post-SCI), 14.1%; in [5] (5 mg/rat/day oral, 6 weeks post-SCI), 22.9%; in data set [5] (5 mg/rat/day oral, 8 weeks post-SCI, not statistically different), 32.7%. The “macrophages in the COI on histologic sections (FIG. 7)” value in [5] (5 mg/rat/day oral, 6 and 8 weeks post-SCI) is recorded as “rare or absent”. Moreover, the half-life in [6] (10 mg/kg intravenously) was 7.67 h. The bioavailability in data set [6] (oral 40 mg/kg) is listed as 1.16%; in data set [6] (oral 200 mg/kg), 0.53%. In addition, the “recovery of the urinary bladder function vs untreated rats” value in [7] (4 weeks treatment group) is given as “significantly faster”; in data set [7] (6 weeks treatment group) it was “tendency for the paralyzed urinary bladder to recover faster than in controls”. Moreover, the “Toe Pinch Withdrawal test score (0-6) vs untreated rats” value in [8] is “statistically better”.

The term half-life denotes the time in which the quantity being followed falls by half. Usually bioavailability stands for the share of a dose that reaches the circulation, judged against a reference dose that is usually intravenous.
